Key:
[1] = in vivo; cited from earlier work
[2] = biological target: T1, α4β2 nAChRs (Rattus norvegicus, UniProt P09483+P12390); experiment: radioligand ([3H]epibatidine) competition binding, α4β2 nAChR
T1 construct: expressed in transfected cells; host or cells: HEK293 (KXα4β2)
Procedure: A. Cell Lines and Cell Culture. The cell lines KXα3β4R2, expressing rat α3β4 nAChRs, and KXα4β2, expressing rat α4β2 nAChRs, were established previously by stably transfecting human embryonic kidney 293 cells with combinations of rat nAChR subunit genes. These cell lines are maintained in minimum essential medium supplemented with 10% fetal bovine serum, 100 units/mL penicillin G, […] streptomycin, and 0.7 mg/mL G418 (Geneticin) at 37° C. with 5% CO2 in a humidified incubator. The cell line SH-EP1-pcDNA-hα4β2, expressing human α4β2 nAChRs, was described previously and are available. The SH-EP1-pcDNA-hα4β2 cells are grown in Dulbecco's modified Eagle's medium supplemented with 5% fetal bovine serum, 10% horse serum, 100 units/mL penicillin G, 100 μg/mL streptomycin, 320 μg/mL hygromycin B (Calbiochem, La Jolla, Calif.), 400 units/mL Zeocin at 37° C. with 5% CO2 in a humidified incubator.
B. nAChR Binding Affinity and Sub-type Selectivity Assay. The Ki values of compounds for binding to α3β4, α4β2 and other nAChR sub-types will be measured by competition experiments with [3H]epibatidine or other labeled ligands. Not intending to be bound by any one approach, one radioligand binding assay used for measuring the binding of [3H]epibatidine to nAChRs is described below.
In brief, cultured cells at above about 80% confluence will be removed from their flasks (80 cm^2) with a disposable cell scraper and will be placed in 10 mL of 50 mM Tris-HCl buffer, pH 7.4, 4° C. The cell suspension will be centrifuged at 10,000 g for 5 min and the pellet will be collected. For cells undergoing prolonged treatment with nicotinic agonists during culturing, the pellet will be washed two more times by centrifugation in fresh buffer to remove residual drug. The cell pellet will then homogenized in 10 mL of buffer with a Polytron homogenizer (12-mm aggregate, 26,000 rpm, 20 s; model PT2100; Kinematica, Basel, Switzerland) and will be centrifuged at 36,000 g for 10 min at 4° C. The membrane pellet will be resuspended in fresh buffer, and aliquots of the membrane preparation equivalent to 30 to 200 μg of protein will be used for binding assays. The concentration of [3H]epibatidine used will be 100 pM for competition binding assays and 2.4 nM, which is a saturating concentration for the α4β2 receptor subtype, for measuring receptor density. Nonspecific binding will be assessed in parallel incubations in the presence of 300 μM nicotine. Bound and free ligands will be separated by vacuum filtration through Whatman GF/C filters treated with 0.5% polyethylenimine. The filter-retained radioactivity will be measured by liquid scintillation counting. […] Data from saturation and competition binding assays will be analyzed using Prism 4 (GraphPad Software, San Diego, Calif.).

[3] = biological target: T2, α4β2 nAChRs (Homo sapiens, UniProt P17787+P43681); experiment: desensitizer test: 86Rb+ efflux after 10 min preincubation, α4β2 nAChR; format: cell-based
T2 construct: expressed in transfected cells; host or cells: SH-EP1 (SH-EP1-pcDNA-hα4β2)
Procedure: (§1) A. Cell Lines and Cell Culture. The cell lines KXα3β4R2, expressing rat α3β4 nAChRs, and KXα4β2, expressing rat α4β2 nAChRs, were established previously by stably transfecting human embryonic kidney 293 cells with combinations of rat nAChR subunit genes. These cell lines are maintained in minimum essential medium supplemented with 10% fetal bovine serum, 100 units/mL penicillin G, […] streptomycin, and 0.7 mg/mL G418 (Geneticin) at 37° C. with 5% CO2 in a humidified incubator. The cell line SH-EP1-pcDNA-hα4β2, expressing human α4β2 nAChRs, was described previously and are available. […]
C. nAChR Functional Assay. The agonist, antagonist and/or desitizer activity of compounds of the invention can be evaluated by measuring its blockade of nicotine-stimulated 86Rb+ efflux. […]
In brief, cells will be plated into 24-well plates coated with poly-D-lysine. […] Radioactivity of assay samples and lysates will be measured by liquid scintillation counting. Total loading (cpm) will be calculated as the sum of the assay sample and the lysate of each well. The amount of 86Rb+ efflux will be expressed as a percentage of 86Rb+ loaded. […] IC50 values will be determined by nonlinear least-squares regression analyses (GraphPad Software).
D. Measurement of Desensitization. Not intending to be bound by any one method, desensitization may be measured, for example, by the method described below. […]

[4] = biological target: T3, α3β4 nAChRs (Rattus norvegicus, UniProt P04757+P12392); experiment: radioligand ([3H]epibatidine) competition binding, α3β4 nAChR
T3 construct: expressed in transfected cells; host or cells: HEK293 (KXα3β4R2)
Procedure: as §1
B. nAChR Binding Affinity and Sub-type Selectivity Assay. The Ki values of compounds for binding to α3β4, α4β2 and other nAChR sub-types will be measured by competition experiments with [3H]epibatidine or other labeled ligands. […]
In brief, cultured cells at above about 80% confluence will be removed from their flasks (80 cm^2) with a disposable cell scraper and will be placed in 10 mL of 50 mM Tris-HCl buffer, pH 7.4, 4° C. […] Nonspecific binding will be assessed in parallel incubations in the presence of 300 μM nicotine. […] The filter-retained radioactivity will be measured by liquid scintillation counting. […] Data from saturation and competition binding assays will be analyzed using Prism 4 (GraphPad Software, San Diego, Calif.).

[5] = biological target: T2, α4β2 nAChRs; conditions: preincubated for 10 min with the cells; complete desensitization; cited from earlier work
[6] = biological target: T2, α4β2 nAChRs; conditions: cited from earlier work
[7] = tested on: α7 nAChRs; conditions: radioligand binding assays; cited from earlier work
[8] = biological target: T3, α3β4 nAChRs; conditions: concentrations up to 10 μM, even after preincubation; cited from earlier work
[9] = biological target: T3, α3β4 nAChRs; conditions: radioligand binding assays; cited from earlier work
[10] = stability of the isolated HCl salt on exposure to air; format: physicochemical; conditions: white solid, larger scale
Description: A gram-scale synthesis of sazetidine A is outlined in FIG. 1a. The Boc-protected azidityl methyl alcohol 2 and 3-bromo-5-hydroxy pyridine (3) are both commercially available. Treatment with PPh3 and DEAD according to the Mitsunobu protocol formed ether derivative 4 in 70% yield. Palladium-mediated coupling of the bromo-substituted pyridine 4 with 5-hexyn-1-ol under modified Sonogashira conditions furnished Boc-protected sazetidine A in 73% yield. Deprotection of the Boc-group with HCl was expected to give sazetidine A in salt form as published in the literature.

Row | SMILES | analgesic potency [1] | Ki [2] | decrease in Ki relative to sazetidine A ([2]; triazole in place of the alkynyl group) | selectivity for the α4β2 receptor ([2]; α4β2 over α3β4, from Ki values) | IC50 [3] | Ki [4] | EC50 [5] | agonist activity at α4β2 nAChRs ([6]; added alone) | antagonist activity at α4β2 receptors ([6]; added simultaneously with an agonist, such as nicotine) | selectivity, affinity at α4β2 compared to α7 nAChRs [7] | effect on the function of α3β4 nAChRs [8] | selectivity, affinity at α4β2 compared to α3β4 nAChRs [9] | stability on exposure to air [10]
1 | Clc1ccc(C2CC3CCC2N3)cn1 (centres unmarked) [Epibatidine] | ~200 times that of morphine | – | – | – | – | – | – | – | – | – | – | – | –
2 | OCCCCc1cn(-c2cncc(OCC3CCN3)c2)nn1 (centres unmarked) [triazetidine O] | – | 3.51 nM | approximately 10 fold | 17,692 fold | 100 nM | 62000 nM | – | – | – | – | – | – | –
3 | OCCCCC#Cc1cncc(OCC2CCN2)c1 (centres unmarked) [sazetidine A] | – | 0.41 nM | – | – | – | – | 26 nM | low agonist activity | no typical antagonist activity | > 3,500 fold | no effect | greater than 10,000 fold | decomposition of the material to a yellow-brown wet solid
